Source: PubChem BioAssay AID1963960 (Molecular Pharmacology Branch, DTP, NCI, 2024)

System: MDA-MB-468 spheroids with HUVEC/MSC, viability
Experiment: Anticancer human tumor MDA-MB-468 cell line growth inhibition [PI3K];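 also: spheroids exposed to agents for seven days before readout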;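 as to viability, T/C: 100% = DMSO vehicle control viability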
Details: for IC50: curve of first compound; for viability, T/C: stronger effect = lower value; active = viability on the fitted dose curve at most 10% of control; inactive = the rest
Summary of the method: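 Spheroid viability read-out. Co-cultures contained the tumor line plus HUVEC and human MSCs. Each agent was paired with a PI3K inhibitor (inavolisib, alpelisib, duvelisib, copanlisib) across half-log dilutions starting at clinical Cmax, or at 10 microM when Cmax was unknown.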

[1] = second compound 0.00316 µM, first compound 0.0316 µM
[2] = second compound 0.00316 µM, first compound 0.1 µM
[3] = second compound 0.00316 µM, first compound 0.316 µM
[4] = second compound 0.00316 µM, first compound 1 µM
[5] = second compound 0.00316 µM, first compound 3.16 µM
[6] = second compound 0.00316 µM, first compound 10 µM
[7] = second compound 0.01 µM, first compound 0.0316 µM
[8] = second compound 0.01 µM, first compound 0.1 µM
[9] = second compound 0.01 µM, first compound 0.316 µM
[10] = second compound 0.01 µM, first compound 1 µM
[11] = second compound 0.01 µM, first compound 3.16 µM
[12] = second compound 0.01 µM, first compound 10 µM
[13] = second compound 0.0316 µM, first compound 0.0316 µM
[14] = second compound 0.0316 µM, first compound 0.1 µM
[15] = second compound 0.0316 µM, first compound 0.316 µM
[16] = second compound 0.0316 µM, first compound 1 µM
[17] = second compound 0.0316 µM, first compound 3.16 µM
[18] = second compound 0.0316 µM, first compound 10 µM
[19] = second compound 0.1 µM, first compound 0.0316 µM
[20] = second compound 0.1 µM, first compound 0.1 µM
[21] = second compound 0.1 µM, first compound 0.316 µM
[22] = second compound 0.1 µM, first compound 1 µM
[23] = second compound 0.1 µM, first compound 3.16 µM
[24] = second compound 0.1 µM, first compound 10 µM
[25] = second compound 0.316 µM, first compound 0.0316 µM
[26] = second compound 0.316 µM, first compound 0.1 µM
[27] = second compound 0.316 µM, first compound 0.316 µM
[28] = second compound 0.316 µM, first compound 1 µM
[29] = second compound 0.316 µM, first compound 3.16 µM
[30] = second compound 0.316 µM, first compound 10 µM
[31] = second compound 1 µM, first compound 0.0316 µM
[32] = second compound 1 µM, first compound 0.1 µM
[33] = second compound 1 µM, first compound 0.316 µM
[34] = second compound 1 µM, first compound 1 µM
[35] = second compound 1 µM, first compound 3.16 µM
[36] = second compound 1 µM, first compound 10 µM

CC1(C)CCC(CN2CCN(c3ccc(C(=O)NS(=O)(=O)c4ccc(NCC5CCOCC5)c([N+](=O)[O-])c4)c(Oc4cnc5[nH]ccc5c4)c3)CC2)=C(c2ccc(Cl)cc2)C1 + CC(Nc1ccc2c(c1)OCCn1cc(N3C(=O)OCC3C(F)F)nc1-2)C(N)=O
4.3 µM: IC50 (second compound 0.0316 µM)
4.32 µM: IC50 (second compound 0.1 µM)
inactive: viability, T/C [1] 94.2% | viability, T/C [2] 99.9% | viability, T/C [3] 82.1% | viability, T/C [4] 91.6% | viability, T/C [5] 74.4% | viability, T/C [7] 91.8% | viability, T/C [8] 108% | viability, T/C [9] 90.1% | viability, T/C [10] 108% | viability, T/C [11] 77.5% | viability, T/C [13] 97.6% | viability, T/C [14] 89.3% | viability, T/C [15] 71.6% | viability, T/C [16] 94.6% | viability, T/C [17] 64.6% | viability, T/C [19] 97.9% | viability, T/C [20] 95.7% | viability, T/C [21] 83.4% | viability, T/C [22] 83.8% | viability, T/C [23] 67.2% | viability, T/C [24] 10% | viability, T/C [25] 89.6% | viability, T/C [26] 74.7% | viability, T/C [27] 96% | viability, T/C [28] 76.5% | viability, T/C [29] 56.2% | viability, T/C [31] 80.6% | viability, T/C [32] 79.8% | viability, T/C [33] 79.6% | viability, T/C [34] 90% | viability, T/C [35] 53.8%
3.48 µM: IC50 (second compound 1 µM)
3.63 µM: IC50 (second compound 0.316 µM)
4.86 µM: IC50 (second compound 0.00316 µM)
5.03 µM: IC50 (second compound 0.01 µM)
active: viability, T/C [6] 8.95% | viability, T/C [12] 9.38% | viability, T/C [18] 9.45% | viability, T/C [30] 8.04% | viability, T/C [36] 9.1%

C[C@@H](NC(=O)c1ncnc(N)c1Cl)c1ncc(C(=O)Nc2cc(C(F)(F)F)c(Cl)cn2)s1 + Cc1nc(NC(=O)N2CCCC2C(N)=O)sc1-c1ccnc(C(C)(C)C(F)(F)F)c1
< 0.0316 µM: IC50 (second compound 10 µM)
9.15 µM: IC50 (second compound 3.16 µM)
> 10 µM: IC50 (second compound 0.0316 µM) | IC50 (second compound 0.1 µM) | IC50 (second compound 0.316 µM) | IC50 (second compound 1 µM)
inactive: viability, T/C [13] 75.5% | viability, T/C [14] 109% | viability, T/C [15] 85.4% | viability, T/C [16] 117% | viability, T/C [17] 89.7% | viability, T/C [18] 82.8% | viability, T/C [19] 88.4% | viability, T/C [20] 89.2% | viability, T/C [21] 86.4% | viability, T/C [22] 119% | viability, T/C [23] 95% | viability, T/C [24] 85.2% | viability, T/C [25] 107% | viability, T/C [26] 92.2% | viability, T/C [27] 78.8% | viability, T/C [28] 98.3% | viability, T/C [29] 85.3% | viability, T/C [30] 68.6% | viability, T/C [31] 91.9% | viability, T/C [32] 71.8% | viability, T/C [33] 72.7% | viability, T/C [34] 75.7% | viability, T/C [35] 69.1% | viability, T/C [36] 61.6% | viability, T/C (second compound 3.16 µM, first compound 0.0316 µM) 84.7% | viability, T/C (second compound 3.16 µM, first compound 0.1 µM) 59.2% | viability, T/C (second compound 3.16 µM, first compound 0.316 µM) 74.8% | viability, T/C (second compound 3.16 µM, first compound 1 µM) 61.4% | viability, T/C (second compound 3.16 µM, first compound 3.16 µM) 59.3% | viability, T/C (second compound 3.16 µM, first compound 10 µM) 46.8% | viability, T/C (second compound 10 µM, first compound 0.0316 µM) 40.2% | viability, T/C (second compound 10 µM, first compound 0.1 µM) 31.9% | viability, T/C (second compound 10 µM, first compound 0.316 µM) 39.3% | viability, T/C (second compound 10 µM, first compound 1 µM) 35.4% | viability, T/C (second compound 10 µM, first compound 3.16 µM) 34% | viability, T/C (second compound 10 µM, first compound 10 µM) 17.1%

CNC(=O)c1ccc(N2C(=S)N(c3ccc(C#N)c(C(F)(F)F)c3)C(=O)C2(C)C)cc1F + COc1c(OCCCN2CCOCC2)ccc2c3n(c(=NC(=O)c4cnc(N)nc4)nc12)CCN3
inactive: viability, T/C [1] 85.4% | viability, T/C [2] 90.6% | viability, T/C [3] 88.5% | viability, T/C [4] 101% | viability, T/C [5] 77.4% | viability, T/C [6] 70.8% | viability, T/C [7] 81.9% | viability, T/C [8] 89.8% | viability, T/C [9] 87.8% | viability, T/C [10] 86.2% | viability, T/C [11] 79.7% | viability, T/C [12] 75.6% | viability, T/C [13] 82.4% | viability, T/C [14] 80.7% | viability, T/C [15] 82.8% | viability, T/C [16] 80.2% | viability, T/C [17] 82.5% | viability, T/C [18] 60.7% | viability, T/C [19] 52.7% | viability, T/C [20] 54.2% | viability, T/C [21] 59.5% | viability, T/C [22] 57% | viability, T/C [23] 59.9% | viability, T/C [24] 49.2% | viability, T/C [25] 26.4% | viability, T/C [26] 27.4% | viability, T/C [27] 29.3% | viability, T/C [28] 30.1% | viability, T/C [29] 29.6% | viability, T/C [30] 20.8%
> 10 µM: IC50 (second compound 0.00316 µM) | IC50 (second compound 0.01 µM) | IC50 (second compound 0.0316 µM) | IC50 (second compound 0.1 µM)
< 0.0316 µM: IC50 (second compound 0.316 µM) | IC50 (second compound 1 µM)
active: viability, T/C [31] 4.39% | viability, T/C [32] 4.39% | viability, T/C [33] 4.07% | viability, T/C [34] 4.23% | viability, T/C [35] 4.41% | viability, T/C [36] 2.21%
